{
  "source": "ChEMBL document CHEMBL5584328",
  "about": "“Integrating computational and experimental chemical biology revealed variable anticancer activities of phosphodiesterase isoenzyme 5 inhibitors (PDE5i) in lung cancer” (RSC Med Chem, 2024)",
  "key": {"[1]": {"test_system": "A549", "experiment": "Reduction in PDE5 protein expression in human A549 cells at 0.25 to 0.5 IC50 measured after 48 hrs by Western blot analysis", "assay_type": "functional, cell-based"}, "[2]": {"test_system": "NCI-H1299", "experiment": "Antiproliferative activity against human NCI-H1299 cells by MTT assay", "assay_type": "functional, cell-based", "details": "time 24-72 hrs, TDE = time-dependent effect"}, "[3]": {"test_system": "NCI-H1299", "experiment": "Potentiation of raloxifene-induced cytotoxicity against human NCI-H1299 cells assessed as combination index at 1:2 ratio of raloxifene to compound measured after 48 hrs by MTT assay", "assay_type": "functional"}, "[4]": {"test_system": "NCI-H1299", "experiment": "Antiproliferative activity against human NCI-H1299 cells measured after 72 hrs by MTT assay", "assay_type": "functional, cell-based"}, "[5]": {"test_system": "NCI-H661", "experiment": "Antiproliferative activity against human NCI-H661 cells measured after 72 hrs by MTT assay", "assay_type": "functional, cell-based"}, "[6]": {"test_system": "A549", "experiment": "Potentiation of raloxifene-induced cytotoxicity against human A549 cells assessed as fold reduction in raloxifene IC50 at 1:3 ratio of raloxifene to compound measured after 48 hrs by MTT assay relative to raloxifene alone", "assay_type": "functional"}, "[7]": {"test_system": "A549", "experiment": "Cell cycle arrest in human A549 cells assessed as increase in cell population at G2 phase at 64 uM measured after 48 hrs by propidium iodide staining based flow cytometry", "assay_type": "functional"}, "[8]": {"test_system": "A549", "experiment": "Antiproliferative activity against human A549 cells measured after 48 hrs by MTT assay", "assay_type": "functional, cell-based"}, "[9]": {"test_system": "A549", "experiment": "Inhibition of colony formation in human A549 cells assessed as reduction in size of colonies at 64 to 128 uM measured after 48 hrs by colony formation assay", "assay_type": "functional, cell-based", "details": "dose 64-128 µM"}, "[10]": {"test_system": "A549", "experiment": "Inhibition of colony formation in human A549 cells assessed as reduction in number of colonies at 64 to 128 uM measured after 48 hrs by colony formation assay", "assay_type": "functional, cell-based", "details": "dose 64-128 µM"}, "[11]": {"test_system": "NCI-H1299", "experiment": "Potentiation of cisplatin-induced cytotoxicity against human NCI-H1299 cells assessed as combination index at 1:4 ratio of cisplatin to compound measured after 48 hrs by MTT assay", "assay_type": "functional"}, "[12]": {"test_system": "NCI-H661", "experiment": "Potentiation of cisplatin-induced cytotoxicity against human NCI-H661 cells assessed as fold reduction in cisplatin IC50 at 1:4 ratio of cisplatin to compound measured after 48 hrs by MTT assay relative to cisplatin alone", "assay_type": "functional"}, "[13]": {"test_system": "A549", "experiment": "Potentiation of raloxifene-induced cytotoxicity against human A549 cells assessed as combination index at 1:3 ratio of raloxifene to compound measured after 48 hrs by MTT assay", "assay_type": "functional"}, "[14]": {"test_system": "A549", "experiment": "Reduction in PDE5 gene expression in human A549 cells at 0.1 IC50 measured after 48 hrs by qRT-PCR analysis", "assay_type": "functional, cell-based"}, "[15]": {"test_system": "NCI-H1299", "experiment": "Potentiation of cisplatin-induced cytotoxicity against human NCI-H1299 cells assessed as fold reduction in cisplatin IC50 at 1:4 ratio of cisplatin to compound measured after 48 hrs by MTT assay relative to cisplatin alone", "assay_type": "functional"}, "[16]": {"test_system": "A549", "experiment": "Potentiation of cisplatin-induced cytotoxicity against human A549 cells assessed as fold reduction in cisplatin IC50 at 1:5 ratio of cisplatin to compound measured after 48 hrs by MTT assay relative to cisplatin alone", "assay_type": "functional"}, "[17]": {"test_system": "A549", "experiment": "Reduction in Bcl-2 gene expression in human A549 cells at 0.1 IC50 measured after 48 hrs by qRT-PCR analysis", "assay_type": "functional, cell-based"}, "[18]": {"test_system": "NCI-H1299", "experiment": "Antimigratory activity against human NCI-H1299 cells assessed as reduction in wound closure measured after 24 hrs by wound healing assay", "assay_type": "functional, cell-based"}, "[19]": {"test_system": "NCI-H661", "experiment": "Potentiation of raloxifene-induced cytotoxicity against human NCI-H661 cells assessed as fold reduction in raloxifene IC50 at 1:2 ratio of raloxifene to compound measured after 48 hrs by MTT assay relative to raloxifene alone", "assay_type": "functional"}, "[20]": {"test_system": "NCI-H661", "experiment": "Antiproliferative activity against human NCI-H661 cells by MTT assay", "assay_type": "functional, cell-based", "details": "time 24-72 hrs, TDE = time-dependent effect"}, "[21]": {"test_system": "NCI-H1299", "experiment": "Antiproliferative activity against human NCI-H1299 cells measured after 24 hrs by MTT assay", "assay_type": "functional, cell-based"}, "[22]": {"test_system": "A549", "experiment": "Antiproliferative activity against human A549 cells measured after 24 hrs by MTT assay", "assay_type": "functional, cell-based"}, "[23]": {"test_system": "A549", "experiment": "Induction of apoptosis in human A549 cells assessed as increase in apoptotic cells at 256 uM measured after 48 hrs by Annexin V-FITC/PI staining based flow cytometry relative to control", "assay_type": "functional"}, "[24]": {"test_system": "NCI-H1299", "experiment": "Potentiation of raloxifene-induced cytotoxicity against human NCI-H1299 cells assessed as fold reduction in raloxifene IC50 at 1:2 ratio of raloxifene to compound measured after 48 hrs by MTT assay relative to raloxifene alone", "assay_type": "functional"}, "[25]": {"test_system": "NCI-H661", "experiment": "Antiproliferative activity against human NCI-H661 cells measured after 24 hrs by MTT assay", "assay_type": "functional, cell-based"}, "[26]": {"test_system": "NCI-H661", "experiment": "Antiproliferative activity against human NCI-H661 cells measured after 48 hrs by MTT assay", "assay_type": "functional, cell-based"}, "[27]": {"test_system": "NCI-H661", "experiment": "Potentiation of raloxifene-induced cytotoxicity against human NCI-H661 cells assessed as combination index at 1:2 ratio of raloxifene to compound measured after 48 hrs by MTT assay", "assay_type": "functional"}, "[28]": {"test_system": "A549", "experiment": "Antiproliferative activity against human A549 cells measured after 72 hrs by MTT assay", "assay_type": "functional, cell-based"}, "[29]": {"test_system": "NCI-H661", "experiment": "Potentiation of cisplatin-induced cytotoxicity against human NCI-H661 cells assessed as combination index at 1:4 ratio of cisplatin to compound measured after 48 hrs by MTT assay", "assay_type": "functional"}, "[30]": {"test_system": "A549", "experiment": "Potentiation of cisplatin-induced cytotoxicity against human A549 cells assessed as combination index at 1:5 ratio of cisplatin to compound measured after 48 hrs by MTT assay", "assay_type": "functional"}, "[31]": {"test_system": "A549", "experiment": "Antiproliferative activity against human A549 cells by MTT assay", "assay_type": "functional, cell-based", "details": "time 24-72 hrs, TDE = time-dependent effect"}, "[32]": {"test_system": "NCI-H1299", "experiment": "Antiproliferative activity against human NCI-H1299 cells measured after 48 hrs by MTT assay", "assay_type": "functional, cell-based"}},
  "note": "Calls of active or inactive are those of the source. No cut-off for these calls is given here.",
  "data": [
    {"smiles": "CCCOc1ccc(S(=O)(=O)NCCC2CCCN2C)cc1-c1nc2c(CCC)nn(C)c2c(=O)[nH]1", "note": "(stereo unspecified) [UDENAFIL]", "values": [
      {"measurement": "Activity", "setting": "[1]", "result": "Dose-Dependent Effect"},
      {"measurement": "Activity", "setting": "[2]", "result": "Tde"},
      {"measurement": "CI", "setting": "[3]", "result": 0.88},
      {"measurement": "Activity", "setting": "[4]", "result": "Dose-Dependent Effect"},
      {"measurement": "IC50", "setting": "[4]; NCI-H1299, 72 h", "result": 70.5, "unit": "µM"},
      {"measurement": "Activity", "setting": "[5]", "result": "Dose-Dependent Effect"},
      {"measurement": "IC50", "setting": "[5]; NCI-H661, 72 h", "result": 98.8, "unit": "µM"},
      {"measurement": "fold change (FC)", "setting": "[6]", "result": 1.6},
      {"measurement": "Activity", "setting": "[7]", "result": "Active"},
      {"measurement": "Activity", "setting": "[8]", "result": "Dose-Dependent Effect"},
      {"measurement": "IC50", "setting": "[8]; A549, 48 h", "result": 128, "unit": "µM"},
      {"measurement": "inhibition", "setting": "[9]", "result": "Active"},
      {"measurement": "inhibition", "setting": "[10]", "result": "Active"},
      {"measurement": "CI", "setting": "[11]", "result": 0.82},
      {"measurement": "fold change (FC)", "setting": "[12]", "result": 2.1},
      {"measurement": "CI", "setting": "[13]", "result": 0.98},
      {"measurement": "Activity", "setting": "[14]", "result": "Active"},
      {"measurement": "fold change (FC)", "setting": "[15]", "result": 2.4},
      {"measurement": "fold change (FC)", "setting": "[16]", "result": 1.7},
      {"measurement": "Activity", "setting": "[17]", "result": "Active"},
      {"measurement": "Activity", "setting": "[18]", "result": "Dose-Dependent Effect"},
      {"measurement": "fold change (FC)", "setting": "[19]", "result": 2.3},
      {"measurement": "Activity", "setting": "[20]", "result": "Tde"},
      {"measurement": "Activity", "setting": "[21]", "result": "Dose-Dependent Effect"},
      {"measurement": "IC50", "setting": "[21]; NCI-H1299, 24 h", "result": 76.1, "unit": "µM"},
      {"measurement": "Activity", "setting": "[22]", "result": "Dose-Dependent Effect"},
      {"measurement": "IC50", "setting": "[22]; A549, 24 h", "result": 150, "unit": "µM"},
      {"measurement": "Activity", "setting": "[23]", "result": 55.9, "unit": "%"},
      {"measurement": "fold change (FC)", "setting": "[24]", "result": 2.4},
      {"measurement": "Activity", "setting": "[25]", "result": "Dose-Dependent Effect"},
      {"measurement": "IC50", "setting": "[25]; NCI-H661, 24 h", "result": 177, "unit": "µM"},
      {"measurement": "Activity", "setting": "[26]", "result": "Dose-Dependent Effect"},
      {"measurement": "IC50", "setting": "[26]; NCI-H661, 48 h", "result": 80.4, "unit": "µM"},
      {"measurement": "CI", "setting": "[27]", "result": 0.8},
      {"measurement": "Activity", "setting": "[28]", "result": "Dose-Dependent Effect"},
      {"measurement": "IC50", "setting": "[28]; A549, 72 h", "result": 82.8, "unit": "µM"},
      {"measurement": "CI", "setting": "[29]", "result": 0.83},
      {"measurement": "CI", "setting": "[30]", "result": 0.95},
      {"measurement": "Activity", "setting": "[31]", "result": "Tde"},
      {"measurement": "Activity", "setting": "[32]", "result": "Dose-Dependent Effect"},
      {"measurement": "IC50", "setting": "[32]; NCI-H1299, 48 h", "result": 86.3, "unit": "µM"}
    ]}
  ]
}
